Measurements taken from US20260285850A1, “SUBSTITUTED OXAZOLIDINONES AND IMIDAZOLINONES AS HERBICIDES” (FMC CORPORATION, priority 2023, published 2026).

Tests used:
Type in all cases: in vivo
[1] = test system: barnyardgrass (Echinochloa crus-galli); experiment: Test A preemergence soil spray, visual injury rating 0-100; details: 10 days
How it was run: (§1)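 Plants were grown in a loam soil-sand blend and treated with test chemical in a non-phytotoxic solvent mixture containing surfactant, either sprayed on soil preemergence or applied postemergence to 2-10 cm plants. After 10 days in a greenhouse, injury was scored visually against untreated controls, 0 meaning no effect and 100 complete control.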

[2] = test system: blackgrass (Alopecurus myosuroides); experiment: as above; details: 10 days
How it was run: as §1

corn (Zea mays) [3] = experiment: as above; details: 10 days
How it was run: as §1

[4] = test system: green foxtail (Setaria viridis); experiment: as above; details: 10 days
How it was run: as §1

kochia (Bassia scoparia) [5] = experiment: as above; details: 62 g ai/ha, 10 days, 0 = no effect, 100 = complete control
How it was run: as §1

[6] = test system: oat, wild (wild oat, Avena fatua); experiment: as above; details: 10 days
How it was run: as §1

[7] = test system: palmer (palmer amaranth, palmer pigweed, Amaranthus palmeri); experiment: as above; details: 10 days
How it was run: as §1

[8] = test system: ragweed (common ragweed, Ambrosia artemisiifolia); experiment: as above; details: 10 days
How it was run: as §1

[9] = test system: ryegrass, Italian (italian ryegrass, Lolium multiflorum); experiment: as above; details: 10 days
How it was run: as §1

soybean (Glycine max) [10] = experiment: as above; details: 10 days
How it was run: as §1

[11] = test system: wheat (Triticum aestivum); experiment: as above; details: 10 days
How it was run: as §1

[12] = test system: barnyardgrass (Echinochloa crus-galli); experiment: Test A postemergence application, visual injury rating 0-100
How it was run: as §1

[13] = test system: blackgrass (Alopecurus myosuroides); experiment: as above
How it was run: as §1

corn (Zea mays) [14] = experiment: as above
How it was run: as §1

[15] = test system: galium (catchweed bedstraw, Galium aparine); experiment: as above
How it was run: as §1

[16] = test system: green foxtail (Setaria viridis); experiment: as above
How it was run: as §1

[17] = test system: horseweed (Erigeron canadensis); experiment: as above
How it was run: as §1

kochia (Bassia scoparia) [18] = experiment: as above
How it was run: as §1

[19] = test system: oat, wild (wild oat, Avena fatua); experiment: as above
How it was run: as §1

[20] = test system: palmer (palmer amaranth, palmer pigweed, Amaranthus palmeri); experiment: as above
How it was run: as §1

[21] = test system: ragweed (common ragweed, Ambrosia artemisiifolia); experiment: as above
How it was run: as §1

[22] = test system: ryegrass, Italian (italian ryegrass, Lolium multiflorum); experiment: as above
How it was run: as §1

soybean (Glycine max) [23] = experiment: as above
How it was run: as §1

[24] = test system: wheat (Triticum aestivum); experiment: as above
How it was run: as §1

[25] = test system: barnyardgrass (Echinochloa crusgalli); experiment: Test B flooded paddy test, visual plant response rating 0-100; details: 250 g ai/ha, Flood, applied to paddy water, evaluated after 13 days
How it was run: (§2)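 2-leaf plants; flood 3 cm over soil; compound dosed into paddy water; depth kept constant; greenhouse 13 d; visual scoring vs controls. Dash = no result.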

[26] = test system: ducksalad (Heteranthera limosa); experiment: as above; details: 250 g ai/ha, Flood, applied to paddy water, evaluated after 13 days
How it was run: as §2

rice (Oryza sativa) = experiment: as above; details: 250 g ai/ha, Flood, applied to paddy water, evaluated after 13 days
How it was run: as §2

[27] = test system: sedge, umbrella (small-flower umbrella sedge, Cyperus difformis); experiment: as above; details: 250 g ai/ha, Flood, applied to paddy water, evaluated after 13 days
How it was run: as §2

[28] = 62 g ai/ha, 0 = no effect, 100 = complete control
[29] = 62 g ai/ha, postemergence, 10 days, 0 = no effect, 100 = complete control
[30] = Postemergence, 16 g ai/ha, greenhouse 10 days, 0 no effect, 100 complete control

CCOC(=O)C1C=CC(NC(=O)C2(C)CN(c3cc(C)cc(C)c3)C(=O)O2)C1 (stereo not drawn) [Compound 116]
20: Kochia plant response rating (0 to 100 scale) (kochia (Bassia scoparia) [18]; [30]) | Ryegrass, Italian plant response rating (0 to 100 scale) [22, 30]
45: Plant response rating, Ducksalad (0 to 100 scale, 0 is no effect and 100 is complete control) [26]
10: Corn plant response rating (0-100) (corn (Zea mays) [3]; [28]) | Pigweed, Palmer plant response rating ([7]; 16 g ai/ha, 0 to 100 scale) | Foxtail, Green plant response rating (0 to 100 scale) [16, 30]
100: Barnyardgrass plant response rating (0-100) [1, 28] | Kochia plant response rating (0-100) (kochia (Bassia scoparia) [5]) | Pigweed, Palmer plant response rating (0-100) [7, 28] | Barnyardgrass plant response rating (0-100) [12, 29] | Corn plant response rating (0-100) (corn (Zea mays) [14]; [29])
60: Galium plant response rating (0 to 100 scale) [15, 30] | Kochia plant response rating (0-100) (kochia (Bassia scoparia) [18]; [29]) | Oat, Wild plant response rating (0 to 100 scale) [19, 30] | Soybean plant response rating (0-100) (soybean (Glycine max) [23]; [29])
55: Plant response rating, Sedge, Umbrella (0 to 100 scale, 0 is no effect and 100 is complete control) [27]
70: Blackgrass plant response rating (0-100) [2, 28] | Ryegrass, Italian plant response rating (0-100) [9, 28] | Barnyardgrass plant response rating (0 to 100 scale) [12, 30] | Galium plant response rating (0-100) [15, 29] | Ryegrass, Italian plant response rating (0-100) [22, 29]
0: Blackgrass plant response rating ([2]; 16 g ai/ha, 0 to 100 scale) | Corn plant response rating (corn (Zea mays) [3]; 16 g ai/ha, 0 to 100 scale) | Foxtail, Green plant response rating ([4]; 16 g ai/ha, 0 to 100 scale) | Oat, Wild plant response rating ([6]; 16 g ai/ha, 0 to 100 scale) | Ragweed plant response rating ([8]; 16 g ai/ha, 0 to 100 scale) | Ragweed plant response rating (0-100) [8, 28] | Ryegrass, Italian plant response rating ([9]; 16 g ai/ha, 0 to 100 scale) | Soybean plant response rating (soybean (Glycine max) [10]; 16 g ai/ha, 0 to 100 scale) | Soybean plant response rating (0-100) (soybean (Glycine max) [10]; [28]) | Wheat plant response rating ([11]; 16 g ai/ha, 0 to 100 scale) | Horseweed plant response rating (0-100) [17, 29] | Horseweed plant response rating (0 to 100 scale) [17, 30] | Pigweed, Palmer plant response rating (0 to 100 scale) [20, 30] | Ragweed plant response rating (0 to 100 scale) [21, 30]
90: Blackgrass plant response rating (0-100) [13, 29] | Oat, Wild plant response rating (0-100) [19, 29] | Wheat plant response rating (0-100) [24, 29]
50: Oat, Wild plant response rating (0-100) [6, 28] | Soybean plant response rating (0 to 100 scale) (soybean (Glycine max) [23]; [30]) | Plant response rating, Rice (0 to 100 scale, 0 is no effect and 100 is complete control) (rice (Oryza sativa))
30: Barnyardgrass plant response rating ([1]; 16 g ai/ha, 0 to 100 scale) | Wheat plant response rating (0-100) [11, 28] | Foxtail, Green plant response rating (0-100) [16, 29] | Ragweed plant response rating (0-100) [21, 29]
40: Corn plant response rating (0 to 100 scale) (corn (Zea mays) [14]; [30]) | Pigweed, Palmer plant response rating (0-100) [20, 29] | Wheat plant response rating (0 to 100 scale) [24, 30]
75: Plant response rating, Barnyardgrass (0 to 100 scale, 0 is no effect and 100 is complete control) [25]
80: Foxtail, Green plant response rating (0-100) [4, 28] | Blackgrass plant response rating (0 to 100 scale) [13, 30]
